According to patent US7427626B2, “2-Anilino-4-(imidazol-5-yl)-pyrimidine derivatives and their use as cdk (cdk2) inhibitors” (AstraZeneca AB, priority 2003, dated 2008):

Biological target: T1, CDK2/Cyclin E (Homo sapiens, UniProt P24941)
T1 construct: The open reading frames of CDK2 and Cyclin E were isolated; made in house; host or cells: Spodoptera frugiperda SF21 insect cells with baculovirus co-infection (CDK2 and cyclin E); E. coli BL21 (DE3) pLysS (GST-Rb substrate)
Assay: in vitro kinase assay, Scintillation Proximity Assay, incorporation of [γ-33-P]-ATP into GST-Rb
Assay type: biochemical
Conditions: CDK2/Cyclin E partially-purified enzyme, GST-Rb substrate, 0.2 μM ATP, 60 minutes at room temperature
Description: The compounds were tested in an in vitro kinase assay in 96 well format using Scintillation Proximity Assay (SPA—obtained from Amersham) for measuring incorporation of [γ-33-P]-Adenosine Triphosphate into a test substrate (GST-Retinoblastoma protein; GST-Rb). In each well was placed the compound to be tested (diluted in DMSO and water to correct concentrations) and in control wells either roscovitine as an inhibitor control or DMSO as a […] control.
Approximately 0.2 μl of CDK2/Cyclin E partially-purified enzyme (amount dependent on enzyme activity) diluted in 25 μl incubation buffer was added to each well then 20 μl of GST-Rb/ATP/ATP33 mixture (containing 0.5 μg GST-Rb and 0.2 μM ATP and 0.14 μCi [γ-33-P]-Adenosine Triphosphate in incubation buffer), and the resulting mixture shaken gently, then incubated at room temperature for 60 minutes.
To each well was then added 150 μL stop solution containing (0.8 mg/well of Protein A-PVT SPA bead (Amersham)), 20 pM/well of Anti-Glutathione Transferase, Rabbit IgG (obtained from Molecular Probes), 61 mM EDTA and 50 mM HEPES pH 7.5 containing 0.05% sodium azide.
The plates were sealed with Topseal-S plate sealers, left for two hours then spun at 2500 rpm, 1124 xg., for 5 minutes. The plates were read on a Topcount for 30 seconds per well. […]
E. coli paste was resuspended in 10 ml/g of NETN buffer (50 mM Tris pH 7.5, 120 mM NaCl, 1 mM EDTA, 0.5% v/v NP-40, 1 mM PMSF, 1 ug/ml leupeptin, 1 μg/ml aprotinin and 1 ug/ml pepstatin) and sonicated for 2×45 seconds per 100 ml homogenate. […] The final product was analysed by Sodium Dodeca Sulfate (SDS) PAGE (Polyacrylamide gel) using 8-16% Tris-Glycine gels (Novex, San Diego, USA).
The open reading frames of CDK2 and Cyclin E were isolated by reverse transcriptase-PCR using HeLa cell and activated T cell mRNA as a template and cloned into the insect expression vector pVL1393 (obtained from Invitrogen 1995 catalogue number: V1392-20). […]

Compound	IC50 [nM]
CC(C)n1c(-c2ccnc(Nc3ccccc3)n2)cnc1C(=O)c1ccccc1 [Example 6, 2-Anilino4(2-benzoyl-1-isopropylimidazol-5-yl)pyrimidine]	65
CC(C)n1c(-c2ccnc(Nc3ccccc3)n2)cnc1C(=O)c1ccncc1 [Example 8, 2-Anilino-4-[2-(pyridin-4-ylcarbonyl)-1-isopropylimidazol-5-yl]pyrimidine]	4
CC(C)n1c(-c2ccnc(Nc3ccccc3)n2)cnc1C(=O)CCc1ccccc1 [Example 9, 2-Anilino-4-[2-(3-phenylpropionyl)-1-isopropylimidazol-5-yl]pyrimidine]	64
